Assay results: patent US20230190937A1, “IRON COMPLEXES OF ESTERIFIED DERIVATIVES OF NATURAL PRODUCTS, AND METHODS OF USE” (CORNELL UNIVERSITY, priority 2021, published 2023)

Method: Preparation of curcumin in coconut oil. To a round bottom flask with a magnetic stir bar, 20 mg of curcumin and 25 mL (23000 mg) of coconut oil were added. The flask was placed in a water bath at 40° C. and the mixture was stirred for 30 min. The sample was then cooled to room temperature and centrifuged to remove non-dissolved residue of curcumin.
(§1) The sample was then cooled to room temperature and used for the next studies.
as §1

solubility (concentration) in coconut oil: around 0.08 wt %
Structure (SMILES): COc1cc(/C=C/C(=O)CC(=O)/C=C/c2ccc(O)c(OC)c2)ccc1O [curcumin]
